Legend:
Format in all cases: physicochemical
[1] = pH dependent formation of 1,5- and 1,4-cz-Lig isomers from Lig (pH dependent click-zip) (Chart 13); details: B: 1 day at 80° C.
[2] = Formation of 1,5-cz-[M(Lig)] from Lig and M^II ions (metal dependent click-zip) (Charts 6, 7); details: MOPS/NaOH buffer pH 7.0; for conversion to 1,5-cz-[M(Lig)], Ca^II / conversion to 1,5-cz-[M(Lig)], Cd^II / conversion to 1,5-cz-[M(Lig)], Pb^II: TD728 in 50% i-PrOH
[3] = Alkali metal dependent formation of 1,5-cz-Lig and 1,4-cz-Lig isomers from Lig at pH 10.2 (Chart 14); details: Borate/(M^I)2CO3 buffer pH 10.2
[4] = Formation of 1,5-cz-[Lu(Lig)] from Lig (metal dependent click-zip) with various absolute concentrations (Chart 12)
[5] = B: 1 day at 80° C., visible analyte free precipitate

## C#Cc1cccc(CN2CCN(CC(=O)O)CCN(Cc3cc(-c4ccccc4)cc(CN=[N+]=[N-])n3)CCN(CC(=O)O)CC2)n1 [TD647]
[1]; pH 2.2, 50 mM aq. buffer
  conversion to 1,5-cz-Lig isomer: 88%
[1]; pH 3.0, 50 mM aq. buffer
  conversion to 1,4-cz-Lig isomer: 6%
  conversion to 1,5-cz-Lig isomer: 69%
[1]; pH 3.8, 50 mM aq. buffer
  conversion to 1,4-cz-Lig isomer: 6%
  conversion to 1,5-cz-Lig isomer: 22%
[1]; pH 4.6, 50 mM aq. buffer
  conversion to 1,4-cz-Lig isomer: 5%
  conversion to 1,5-cz-Lig isomer: 13%
[1]; pH 5.4, 50 mM aq. buffer
  conversion to 1,4-cz-Lig isomer: 6%
  conversion to 1,5-cz-Lig isomer: 12%
[1]; pH 6.2, 50 mM aq. buffer
  conversion to 1,4-cz-Lig isomer: 12%
  conversion to 1,5-cz-Lig isomer: 11%
[1]; pH 7.0, 50 mM aq. buffer
  conversion to 1,4-cz-Lig isomer: 23%
  conversion to 1,5-cz-Lig isomer: 19%
[1]; pH 8.6, 50 mM aq. buffer
  conversion to 1,4-cz-Lig isomer: 32%
  conversion to 1,5-cz-Lig isomer: 26%
[1]; pH 9.4, 50 mM aq. buffer
  conversion to 1,4-cz-Lig isomer: 17%
  conversion to 1,5-cz-Lig isomer: 60%
[1]; pH 10.2, 50 mM aq. buffer
  conversion to 1,4-cz-Lig isomer: 5%
  conversion to 1,5-cz-Lig isomer: 80%
[2]; 1 week at 80° C.
  conversion to 1,5-cz-[M(Lig)], Ba^II: 0%
  conversion to 1,5-cz-[M(Lig)], Ni^II: 0%
  conversion to 1,5-cz-[M(Lig)], Sr^II: 0%
  conversion to 1,5-cz-[M(Lig)], Zn^II: 0%
  conversion to 1,5-cz-[M(Lig)], Ca^II: 87%
  conversion to 1,5-cz-[M(Lig)], Cd^II: 86%
  conversion to 1,5-cz-[M(Lig)], Pb^II: 54%
[2]; 1 hour at 80° C.
  conversion to 1,5-cz-[M(Lig)], Ba^II: 0%
  conversion to 1,5-cz-[M(Lig)], Ni^II: 0%
  conversion to 1,5-cz-[M(Lig)], Sr^II: 0%
  conversion to 1,5-cz-[M(Lig)], Zn^II: 0%
  conversion to 1,5-cz-[M(Lig)], Ca^II: 16%
  conversion to 1,5-cz-[M(Lig)], Pb^II: 2%
[2]; 1 hour at 80° C., TD714 sum of two diastereoisomers
  conversion to 1,5-cz-[M(Lig)], Cd^II: 64%
[3]; A: 1 hour at 80° C.
  conversion to 1,4-cz-Lig isomer, Cs^I: 2%
  conversion to 1,4-cz-Lig isomer, K^I: 2%
  conversion to 1,4-cz-Lig isomer, Li^I: 0%
  conversion to 1,4-cz-Lig isomer, Na^I: 1%
  conversion to 1,4-cz-Lig isomer, Rb^I: 2%
  conversion to 1,5-cz-Lig isomer, Cs^I: 0%
  conversion to 1,5-cz-Lig isomer, K^I: 1%
  conversion to 1,5-cz-Lig isomer, Li^I: 0%
  conversion to 1,5-cz-Lig isomer, Na^I: 15%
  conversion to 1,5-cz-Lig isomer, Rb^I: 0%
[3]; B: 1 day at 80° C.
  conversion to 1,4-cz-Lig isomer, Cs^I: 39%
  conversion to 1,4-cz-Lig isomer, K^I: 40%
  conversion to 1,4-cz-Lig isomer, Na^I: 1%
  conversion to 1,4-cz-Lig isomer, Rb^I: 41%
  conversion to 1,5-cz-Lig isomer, Cs^I: 7%
  conversion to 1,5-cz-Lig isomer, K^I: 10%
  conversion to 1,5-cz-Lig isomer, Na^I: 85%
  conversion to 1,5-cz-Lig isomer, Rb^I: 6%
[3]; [5]
  conversion to 1,4-cz-Lig isomer, Li^I: 2%
  conversion to 1,5-cz-Lig isomer, Li^I: 9%
[4]; A: 1 hour at 80° C., Lig 5.0 × 10^0 mM, Lu^III 7.5 × 10^0 mM
  conversion to 1,5-cz-[Lu(Lig)]: 74%
[4]; A: 1 hour at 80° C., Lig 5.0 × 10^1 mM, Lu^III 7.5 × 10^1 mM
  conversion to 1,5-cz-[Lu(Lig)]: 71%
[4]; A: 1 hour at 80° C., Lig 5.0 × 10^−1 mM, Lu^III 7.5 × 10^−1 mM
  conversion to 1,5-cz-[Lu(Lig)]: 70%
[4]; A: 1 hour at 80° C., Lig 5.0 × 10^−2 mM, Lu^III 7.5 × 10^−2 mM
  conversion to 1,5-cz-[Lu(Lig)]: 60%
[4]; A: 1 hour at 80° C., Lig 5.0 × 10^−3 mM, Lu^III 7.5 × 10^−3 mM
  conversion to 1,5-cz-[Lu(Lig)]: 15%
[4]; B: 1 day at 80° C., Lig 5.0 × 10^0 mM, Lu^III 7.5 × 10^0 mM
  conversion to 1,5-cz-[Lu(Lig)]: 96%
[4]; B: 1 day at 80° C., Lig 5.0 × 10^1 mM, Lu^III 7.5 × 10^1 mM
  conversion to 1,5-cz-[Lu(Lig)]: 84%
[4]; B: 1 day at 80° C., Lig 5.0 × 10^−1 mM, Lu^III 7.5 × 10^−1 mM
  conversion to 1,5-cz-[Lu(Lig)]: 97%
[4]; B: 1 day at 80° C., Lig 5.0 × 10^−2 mM, Lu^III 7.5 × 10^−2 mM
  conversion to 1,5-cz-[Lu(Lig)]: 96%
[4]; B: 1 day at 80° C., Lig 5.0 × 10^−3 mM, Lu^III 7.5 × 10^−3 mM
  conversion to 1,5-cz-[Lu(Lig)]: 59%
[4]; C: 1 week at 80° C., Lig 5.0 × 10^0 mM, Lu^III 7.5 × 10^0 mM
  conversion to 1,5-cz-[Lu(Lig)]: 96%
[4]; C: 1 week at 80° C., Lig 5.0 × 10^1 mM, Lu^III 7.5 × 10^1 mM
  conversion to 1,5-cz-[Lu(Lig)]: 86%
[4]; C: 1 week at 80° C., Lig 5.0 × 10^−1 mM, Lu^III 7.5 × 10^−1 mM
  conversion to 1,5-cz-[Lu(Lig)]: 97%
[4]; C: 1 week at 80° C., Lig 5.0 × 10^−2 mM, Lu^III 7.5 × 10^−2 mM
  conversion to 1,5-cz-[Lu(Lig)]: 96%
[4]; C: 1 week at 80° C., Lig 5.0 × 10^−3 mM, Lu^III 7.5 × 10^−3 mM
  conversion to 1,5-cz-[Lu(Lig)]: 57%

Source: patent US20250147039A1, “Compounds for complexation of rare earth elements and/or s-, p-, d- block metals, their coordination compounds, peptide conjugates, method of their preparation and use thereof” (USTAV ORGANICKE CHEMIE A BIOCHEMIE AV CR V.V.I., priority 2021, published 2025)
